According to patent US11318137B2, “Quinazoline compounds as modulators of Ras signaling” (VANDERBILT UNIVERSITY, priority 2017, dated 2022):

Tests used:
[1] = biological target: T1, SOS-mediated nucleotide exchange on Ras (Homo sapiens, UniProt Q07889); assay: SOS-mediated nucleotide exchange on Ras (BODIPY-GDP fluorescence); assay type: biochemical; details: Ras loaded with BODIPY-GDP, GTP and SOS added; EC50 from derived exchange rates
T1 sequence (Q07889 1-1333): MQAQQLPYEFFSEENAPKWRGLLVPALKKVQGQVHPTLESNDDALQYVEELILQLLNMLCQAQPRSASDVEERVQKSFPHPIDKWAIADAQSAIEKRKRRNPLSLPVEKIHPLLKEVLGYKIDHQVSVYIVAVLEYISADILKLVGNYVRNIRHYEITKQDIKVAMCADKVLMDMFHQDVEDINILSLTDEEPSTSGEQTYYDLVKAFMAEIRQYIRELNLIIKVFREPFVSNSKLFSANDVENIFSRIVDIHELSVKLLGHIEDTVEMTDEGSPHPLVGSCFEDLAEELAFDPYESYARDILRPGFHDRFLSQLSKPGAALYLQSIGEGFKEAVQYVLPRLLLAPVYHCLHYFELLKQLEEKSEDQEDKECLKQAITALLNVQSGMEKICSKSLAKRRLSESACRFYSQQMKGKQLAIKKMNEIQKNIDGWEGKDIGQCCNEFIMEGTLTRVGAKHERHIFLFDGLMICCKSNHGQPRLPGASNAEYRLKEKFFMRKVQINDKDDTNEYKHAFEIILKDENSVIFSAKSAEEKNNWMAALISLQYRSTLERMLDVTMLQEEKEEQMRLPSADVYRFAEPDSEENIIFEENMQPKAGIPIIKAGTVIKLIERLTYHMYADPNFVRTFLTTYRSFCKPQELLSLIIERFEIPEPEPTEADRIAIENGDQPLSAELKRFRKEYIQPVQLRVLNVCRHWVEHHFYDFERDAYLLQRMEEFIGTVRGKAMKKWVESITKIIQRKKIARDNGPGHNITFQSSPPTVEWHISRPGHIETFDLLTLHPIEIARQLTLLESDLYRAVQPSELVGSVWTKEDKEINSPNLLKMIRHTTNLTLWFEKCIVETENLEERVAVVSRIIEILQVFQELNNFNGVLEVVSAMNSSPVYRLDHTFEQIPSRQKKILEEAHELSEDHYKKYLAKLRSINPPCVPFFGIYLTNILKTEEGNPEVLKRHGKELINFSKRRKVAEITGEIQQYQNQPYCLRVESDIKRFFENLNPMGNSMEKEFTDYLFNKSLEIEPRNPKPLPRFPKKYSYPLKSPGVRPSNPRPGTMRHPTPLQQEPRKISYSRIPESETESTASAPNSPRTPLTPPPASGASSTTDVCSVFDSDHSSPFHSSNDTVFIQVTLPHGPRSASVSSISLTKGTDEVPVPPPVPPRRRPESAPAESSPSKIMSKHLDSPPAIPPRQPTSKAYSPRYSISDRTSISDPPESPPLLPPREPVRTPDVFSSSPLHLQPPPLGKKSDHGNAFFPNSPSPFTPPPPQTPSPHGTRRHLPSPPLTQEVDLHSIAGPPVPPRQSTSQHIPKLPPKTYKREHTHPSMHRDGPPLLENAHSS
Procedure: A. SOS-Mediated Nucleotide Exchange on Ras
Compounds of the present invention were tested for their ability to modify the rate at which Ras exchanges a labeled nucleotide guanosine diphosphate (GDP) analog for guanosine triphosphate (GTP). Briefly, test compounds, then GTP and the Ras GEF SOS (Son of Sevenless) are added to a buffered solution containing Ras protein loaded with BODIPY-GDP. Changes in fluorescence indicating exchange of the labeled GDP for GTP are monitored over time. Raw fluorescence data was fit to a single exponential decay function and derived rates were plotted as mean values. EC50 values were calculated by plotting mean derived rates as a function of compound concentration and fit using a four-parameter dose-response curve. Full assay details are disclosed in: Burns, M. C.; Sun, Q.; Daniels, R. N.; Camper, D. V.; Kennedy, J. P.; Phan, J.; Olejniczak, E. O.; Lee, T.; Waterson, A. G.; Rossanese, O. W.; Fesik, S. W. “Approach for targeting Ras with small molecules that activate SOS-mediated nucleotide exchange” Proc. Natl. Acad. Sci. 2014; 11(9): 3401-3406. PMCID: PMC3948241.

Son of Sevenless (SOS) = biological target: T2, Son of Sevenless (SOS) (Homo sapiens, UniProt Q07889); assay: Binding to SOS, fluorescence polarization anisotropy (FPA) displacement of FITC-conjugated probe; details: binding affinity calculated from IC50 of FITC-probe displacement, read-out: Binding affinities (binding affinity to SOS)
T2 sequence (Q07889 564-1049 limits assumed): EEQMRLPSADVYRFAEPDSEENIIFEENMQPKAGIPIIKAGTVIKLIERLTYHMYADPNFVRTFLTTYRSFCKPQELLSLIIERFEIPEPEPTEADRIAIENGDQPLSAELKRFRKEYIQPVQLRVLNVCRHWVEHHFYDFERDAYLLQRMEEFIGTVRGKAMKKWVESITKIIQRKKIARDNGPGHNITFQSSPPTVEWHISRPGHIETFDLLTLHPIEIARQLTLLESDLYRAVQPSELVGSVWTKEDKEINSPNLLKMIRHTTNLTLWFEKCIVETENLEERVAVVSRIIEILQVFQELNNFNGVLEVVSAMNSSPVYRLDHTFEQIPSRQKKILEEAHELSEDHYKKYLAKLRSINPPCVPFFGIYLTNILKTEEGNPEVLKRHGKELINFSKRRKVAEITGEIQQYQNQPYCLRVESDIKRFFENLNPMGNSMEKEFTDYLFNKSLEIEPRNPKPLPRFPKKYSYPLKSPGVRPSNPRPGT
Procedure: Compounds of the present invention were tested for their ability to the Ras guanine exchange factor (GEF) Son of Sevenless (SOS). Binding to SOS was measured using a Fluorescence polarization anisotropy (FPA) assay that assesses the ability of a test compound to displace a fluorescent FITC-conjugated compound. Briefly, the labeled probe compound is incubated with SOS in buffer. Changes in anisotropy indicative of displacement of the labeled probe for a test compound are assessed over a dose range of test compound. Data was analyzed by plotting fluorescence anisotropy values as a function of compound concentration. IC50 values were determined using a four-parameter dose-response (variable slope) and binding affinities were calculated from this IC50 value. This assay is performed in a method analogous to the assay disclosed in: Burns, M. C.; Sun, Q.; Daniels, R. N.; Camper, D. V.; Kennedy, J. P.; Phan, J.; Olejniczak, E. O.; Lee, T.; Waterson, A. G.; Rossanese, O. W.; Fesik, S. W. “Approach for targeting Ras with small molecules that activate SOS-mediated nucleotide exchange” Proc. Natl. Acad. Sci. 2014; 11(9): 3401-3406. PMCID: PMC3948241.

SMILES | EC50 [1] | Ki (Son of Sevenless (SOS))
C[C@@H](Nc1nc(Nc2ccc(F)c(Cl)c2)nc2c(C#N)cccc12)C1CC1 [Example 55, (R)-2-((3-chloro-4-fluorophenyl)amino)-4-((1-cycloprprpylethyl)amino)quinazoline-8-carbonitrile] | > 30 µM | > 5 µM
C[C@@H](Nc1nc(Nc2ccc(F)c(Cl)c2)nc2c(C3=CCNCC3)cccc12)C1CC1 [Example 62, (R)—N^2-(3-chloro-4-fluorophenyl)-N^4-(1-cyclopropylethyl)-8-(1,2,3,6-tetrahydropyridin-4-yl)quinazoline-2,4-diamine] | < 1 µM | 1 to 5 µM
C[C@@H](Nc1nc(NCCc2c[nH]cn2)nc2c(C3=CCNCC3)cccc12)C1CC1 [Example 63, (R)—N^2-(2-(1H-imidazol-4-yl)ethyl)-N^4-(1-cyclopropylethyl)-8-(1,2,3,6-tetrahydropyridin-4-yl)quinazoline-2,4-diamine] | > 30 µM | > 5 µM
NCCc1cccc2c(NC(C3CC3)C3CC3)nc(NCC3CCCCC3)nc12 [Example 74, 8-(2-aminoethyl)-N^2-(cyclohexylmethyl)-N^4-(dicyclopropylmethyl)quinazoline-2,4-diamine] | 1 to 5 µM | 1 to 5 µM
C[C@@H](Nc1nc(NCC2CCCCC2)nc2c(CCN)cccc12)C1CC1 [Example 77] | 1 to 5 µM | < 1 µM
C[C@@H](Nc1nc(NCC2CCCCC2)nc2c(C3=CCNCC3)cccc12)C(C)(C)C [Example 81, (R)—N^2-(cyclohexylmethyl)-N^4-(3,3-dimethylbutan-2-yl)-8-(1,2,3,6-tetrahydropyridin-4-yl)quinazoline-2,4-diamine] | 1 to 5 µM | > 5 µM
Cc1cc(F)cc(Nc2nc(N[C@H](C)c3cccs3)c3cccc(C4=CCNCC4)c3n2)c1 [Example 89, (R)—N^2-(3-fluoro-5-methylphenyl)-8-(1,2,3,6-tetrahydropyridin-4-yl)-N^4-(1-(thiophen-2-yl)ethyl)quinazoline-2,4-diamine] | 1 to 5 µM | 1 to 5 µM
C[C@@H](Nc1nc(NCC2CCCCC2)nc2c(C3=CCNCC3)cccc12)c1cccs1 [Example 90, (R)—N^2-(cyclohexylmethyl)-8-(1,2,3,6-tetrahydropyridin-4-yl)-N^4-(1-(thiophen-2-yl)ethyl)quinazoline-2,4-diamine] | 1 to 5 µM | 1 to 5 µM

Other lines, results leading:

EC50 [1] | Ki (Son of Sevenless (SOS)) | SMILES
> 30 µM | > 5 µM | C[C@@H](Nc1nc(Nc2ccc(F)c(Cl)c2)nc2c(NCCO)cccc12)C1CC1 [Example 54, (R)-2-((2-((3-chloro-4-fluorophenyl)amino)-4-((1-cyclopropylethyl)amino)quinazolin-8-yl)amino)ethan-1-ol]
1 to 5 µM | > 5 µM | C[C@@H](Nc1nc(Nc2ccc(F)c(Cl)c2)nc2c(CN)cccc12)C1CC1 [Example 56, (R)-8-(aminomethyl)-N^2-(3-chloro-4-fluorophenyl)-N^4-(1-cyclopropylethyl)quinazoline-2,4-diamine]
1 to 5 µM | 1 to 5 µM | C[C@@H](Nc1nc(Nc2ccc(F)c(Cl)c2)nc2c(CCN)cccc12)C1CC1 [Example 60, (R)-8-(2-aminoethyl)-N^2-(3-chloro-4-fluorophenyl)-N^4-(1-cyclopropylethyl)quinazoline-2,4-diamine]
5 to 30 µM | > 5 µM | C[C@@H](Nc1nc(Nc2ccc(F)c(Cl)c2)nc2c(NCCN)cccc12)C1CC1 [Example 65, (R)—N^8-(2-aminoethyl)-N^2-(3-chloro-4-fluorophenyl)-N^4-(1-cyclopropylethyl)quinazoline-2,4,8-triamine]
5 to 30 µM | > 5 µM | C[C@@H](Nc1nc(Nc2ccc(F)c(Cl)c2)nc2c(NCCCN)cccc12)C1CC1 [Example 66, (R)—N^8-(3-aminopropyl)-N^2-(3-chloro-4-fluorophenyl)-N^4-(1-cyclopropylethyl)quinazoline-2,4,8-triamine]
5 to 30 µM | > 5 µM | C[C@@H](Nc1nc(Nc2ccc(F)c(Cl)c2)nc2c(NCCN(C)C)cccc12)C1CC1 [Example 67, (R)—N^2-(3-chloro-4-fluorophenyl)-N^4-(1-cyclopropylethyl)-N8-(2-(dimethylamino)ethyl)quinazoline-2,4,8-triamine]
5 to 30 µM | > 5 µM | C[C@@H](Nc1nc(Nc2ccc(F)c(Cl)c2)nc2c(CCN)cccc12)C(C)(C)C [Example 82, (R)-8-(2-aminoethyl)-N^2-(3-chloro-4-fluorophenyl)-N^4-(3,3-dimethylbutan-2-yl)quinazoline-2,4-diamine]
5 to 30 µM | 1 to 5 µM | C[C@@H](Nc1nc(NCC2CCCCC2)nc2c(CCN)cccc12)C(C)(C)C [Example 84, (R)-8-(2-aminoethyl)-N^2-(cyclohexylmethyl)-N^4-(3,3-dimethylbutan-2-yl)quinazoline-2,4-diamine]
5 to 30 µM | 1 to 5 µM | C[C@@H](Nc1nc(NCc2cccc(Cl)c2F)nc2c(CCN)cccc12)C(C)(C)C [Example 85, (R)-8-(2-aminoethyl)-N^2-(3-chloro-2-fluorobenzyl)-N^4-(3,3-dimethylbutan-2-yl)quinazoline-2,4-diamine]
5 to 30 µM | > 5 µM | C[C@@H](Nc1nc(NCC2CCCCC2)nc2c(CN)cccc12)C(C)(C)C [Example 86, (R)-8-(aminomethyl)-N^2-(cyclohexylmethyl)-N^4-(3,3-dimethylbutan-2-yl)quinazoline-2,4-diamine]
5 to 30 µM | > 5 µM | C[C@@H](Nc1nc(NCc2cccc(Cl)c2F)nc2c(CN)cccc12)C(C)(C)C [Example 87, (R)-8-(aminomethyl)-N^2-(3-chloro-2-fluorobenzyl)-N^4-(3,3-dimethylbutan-2-yl)quinazoline-2,4-diamine]
